# Measurements reported in patent US6946447B2, “MDM2-specific antisense oligonucleotides” (Hybridon, Inc., priority 1997, dated 2005).
# What was measured:
# [1] = tested on: MDM2, p53 and p21 protein levels in LS174T cells; experiment: Western blot of MDM2, p53 and p21 in LS174T cells; assay type: cell-based, human; settings: 24 hr, Lipofectin
# [2] = tested on: human colon cancer LS174T xenografts; experiment: Tumor growth in nude mice bearing LS174T xenografts
# LS174T cells = experiment: LS174T cell growth by trypan blue viability staining; assay type: cell-based, human; settings: 72 hr, Lipofectin 7 μg/ml, read-out: IC50, inhibition of tumor cell growth
# Text: Chemicals and Reagents. Cell culture media and phosphate-buffered saline (PBS) were obtained from Sigma Chemical Co. (St. Louis, Mo.). Fetal bovine serum (FBS), antibodies against p53 and p21, Lipofectin, trypsin, penicillin-streptomycin, and trypan blue stain were purchased from GIBCO-BRL (Grand Island, N.Y.). The anti-human-MDM2 monoclonal antibody (Chen L. et al., Proc Natl Acad Sci USA, 95: 195-200, 1998; Chen L. et al., Mol. Med. 5: 21-34, 1999) was kindly provided by J. Chen (Moffitt Cancer Center, Tampa, Fla.). Chemotherapeutic agents adriamycin and 5-fluorouracil (5-FU) were obtained from Sigma. […] The MDM2, p53 and p21 levels in cultured cells were analyzed by using the methods described previously (earlier (Chen L. et al., Proc Natl Acad Sci USA, 95: 195-200, 1998; Chen L. et al., Mol. Med. 5: 21-34, 1999; Wang H. et al., Int J. Oncol. 15: 653-660, 1999). In brief, cell lysate containing identical amounts of total protein were fractionated by SDS-PAGE and transferred to Bio-Rad Trans-Blot nitrocellulose membranes (Bio-Rad Laboratories, Hercules, Calif., USA). The nitrocellulose membrane was then incubated with blocking buffer (PBS containing 0.1% Tween 20 and 5% non-fat milk) for 1 hr at room temperature and washed with the washing buffer (PBS containing 0. […]
substance,measurement,setting,value
"Oligo AS: 20-mer mixed-backbone phosphorothioate oligonucleotide with 2′-O-methyl ends, 5′UGACACCTGTTCTCACUCAC-3′; SEQ ID NO:47 (mixed phosphorothioate backbone with 2'-O-methyl ends, pattern not given here)",inhibition of MDM2 expression,[1]; 500 nM,greater than 90%
same,"effect on MDM2, p53 and p21 protein levels",[1]; up to 500 nM,p53 and p21 levels elevated accordingly
same,xenograft pathology (tumor histology),[2],"patches of collagenous connective tissues replacing tumor and necropurulent, ulcerative changes"
same,effect on in vivo tumor growth,[2]; daily ip dose 20 mg/kg,significant inhibitory effect
same,Ratio (%) of % T:C with oligo to % T:C without oligo ([2]/[1] or [3]/[1]),[2]; day 3,51%
same,Growth ratio % T:C (mean tumor mass of treated group vs saline control),"[2]; day 3, oligo 20, HCPT 3, 5-FU 10 mg/kg/day",50.9%
same,Ratio (%) of % T:C with oligo to % T:C without oligo ([2]/[1] or [3]/[1]),[2]; day 6,44%
same,Growth ratio % T:C (mean tumor mass of treated group vs saline control),"[2]; day 6, oligo 20, HCPT 3, 5-FU 10 mg/kg/day",44.1%
same,Ratio (%) of % T:C with oligo to % T:C without oligo ([2]/[1] or [3]/[1]),[2]; day 9,30%
same,Growth ratio % T:C (mean tumor mass of treated group vs saline control),"[2]; day 9, oligo 20, HCPT 3, 5-FU 10 mg/kg/day",29.9%
same,Ratio (%) of % T:C with oligo to % T:C without oligo ([2]/[1] or [3]/[1]),[2]; day 12,34%
same,Growth ratio % T:C (mean tumor mass of treated group vs saline control),"[2]; day 12, oligo 20, HCPT 3, 5-FU 10 mg/kg/day",34.3%
same,Ratio (%) of % T:C with oligo to % T:C without oligo ([2]/[1] or [3]/[1]),[2]; day 15,45%
same,Growth ratio % T:C (mean tumor mass of treated group vs saline control),"[2]; day 15, oligo 20, HCPT 3, 5-FU 10 mg/kg/day",45.2%
same,Ratio (%) of % T:C with oligo to % T:C without oligo ([2]/[1] or [3]/[1]),[2]; day 18,37%
same,Growth ratio % T:C (mean tumor mass of treated group vs saline control),"[2]; day 18 (end of experiment), oligo 20, HCPT 3, 5-FU 10 mg/kg/day",37.3%
same,IC50,LS174T cells,323 nM
